Tests used:
[1] = tested on: lung cancer cell line A549; assay: DNA microarray gene expression after 5-AZA treatment; assay type: cell-based, human
Procedure: Cells of lung cancer cell line A549 were treated with 5-AZA (10 μM) for 3 days and the RNAs were extracted. Gene expression levels were measured using DNA microarrays. The criteria for identifying the candidate genes were that the expression level was close to 0 in the non-treated cells and increased by 30 times or more in the 5-AZA-treated cells. Some candidate genes were found, including SYCP3 (untreated: 3.0, 5-AZA treated: 340.9, fold-change: […]), SPESP1 (untreated: 1.7, 5-AZA treated: 65.3, fold-change: […]), and DAZL1 (untreated: 2.8, 5-AZA treated: 341.3, fold-change: 123.6).

[2] = tested on: SYCP3 gene expression in EBC1, Lu65, HT-29, SAS; assay: SYCP3 gene expression by real-time PCR in 5-AZA-treated cancer cell lines; assay type: cell-based, human; conditions: 5-AZA 10 μM, 3 days; all tested cell lines (EBC1, Lu65, HT-29, SAS)
Procedure: (§1) Cells of cancer cell lines (lung cancer cell line EBC1, lung cancer cell line Lu65, colon cancer cell line HT-29, and oral squamous cell carcinoma cell line SAS) were cultured in the complete medium (RPMI 1640 medium (nacalai tesque 30264-56) with 100 U/mL penicillin (Meiji Seika) and […] streptomycin (Meiji Seika), added with 10% fetal bovine serum (biosera FB-1365/500) which had been […] at 56° C. for 30 minutes) containing 5-AZA (10 μM) at the density of 2×10^5 cells/well in 6-well plates (Falcon 353046) in an incubator (SANYO) set at 37° C., 5% CO2, and 95% humidity for 3 days. The same incubator was used for all cell cultures in the following tests. The cells were washed with 2 mL of a phosphate-buffered saline (PBS, KANTO CHEMICAL CO., INC. 73111). The RNAs were extracted with RNeasy Mini Kit (Qiagen 74106), and the cDNAs were synthesized by using PrimeScript 1st strand cDNA Synthesis Kit (Takara Bio 6110A), and the gene expression levels of GAPDH (Applied Biosystems Hs02786624_g1) and SYCP3 (Applied Biosystems Hs00538146_m1) were analyzed by real-time PCR using LightCycler480 (Roche). Each step was carried out in accordance with the description of the package inserts attached to each reagent.

[3] = tested on: SPESP1 gene expression in SW839, 5637, LC2/Ad, EBC1, HT-29, Lu65, SAS; assay: SPESP1 gene expression by real-time PCR in 5-AZA-treated cancer cell lines; assay type: cell-based, human; conditions: all tested cell lines
Procedure: Cells of cancer cell lines (lung cancer cell line EBC1, lung cancer cell line Lu65, colon cancer cell line HT-29, and oral squamous cell carcinoma cell line SAS) were cultured in the complete medium (RPMI 1640 medium (nacalai tesque 30264-56) with 100 U/mL penicillin (Meiji Seika) and 100 μg/L streptomycin (Meiji Seika), added with 10% fetal bovine serum (biosera FB-1365/500) which had been immobilized at 56° C. for 30 minutes) containing 5-AZA (10 μM) at the density of 2×10^5 cells/well in 6-well plates (Falcon 353046) in an incubator (SANYO) set at 37° C., 5% CO2, and 95% humidity for 3 days. […] The RNAs were extracted with RNeasy Mini Kit (Qiagen 74106), and the cDNAs were synthesized by using PrimeScript 1st strand cDNA Synthesis Kit (Takara Bio 6110A), and the gene expression levels of GAPDH (Applied Biosystems Hs02786624_g1) and SYCP3 (Applied Biosystems Hs00538146_m1) were analyzed by real-time PCR using LightCycler480 (Roche). […]
Similarly, cells of renal cancer cell line SW839, bladder cancer cell line 5637, lung adenocarcinoma cell line LC2/Ad, lung cancer cell line EBC1, colon cancer cell line HT-29, lung cancer cell line Lu65, and oral squamous cell carcinoma cell line SAS were cultured in the presence of 5-AZA, and the gene expression levels of GAPDH and SPESP1 (Applied Biosystems Hs00377364_m1) were analyzed.

[4] = tested on: mouse DAZL1 gene expression in WEHI-3; assay: DAZL1 gene expression by real-time PCR in 5-AZA-treated WEHI-3; assay type: cell-based
Procedure: as §1, with “Each step was carried out in accordance with the description of the package inserts attached to each reagent.” left out
Similarly, cells of mouse leukemia cell line WEHI-3 (Balb/c) was cultured in the presence of 5-AZA, and the gene expression levels of mouse GAPDH (Applied Biosystems Mm99999915_g1) and mouse DAZL1 (Applied Biosystems Mm01273546_m1) were analyzed.

[5] = tested on: SYCP3 protein in EBC1 and Lu65; assay: SYCP3 protein by Western blotting; assay type: cell-based, human; conditions: EBC1 and Lu65 treated with 5-AZA
Procedure: The amount of SYCP3 protein in EBC1 and Lu65 treated with 5-AZA was analyzed by Western blotting. An anti-SYCP3 antibody (Mouse anti-SCP3, BD Bioscience 611230) diluted at 1:200 was used as the primary antibody. Upregulation of SYCP3 by the 5-AZA treatment was also observed at the protein level.

[6] = tested on: DAZL1 protein in E0771 and C1498; assay: DAZL1 protein by Western blotting in mouse cancer cell lines; assay type: cell-based; conditions: 5-AZA 10 μM
Procedure: Cells of mouse cancer cell lines (E0771:C57BL/6 mouse breast cancer cell line and C1498:C57BL/6 mouse acute myeloid leukemia cell line) were treated with 5-AZA (10 μM), and the amount of DAZL1 protein was analyzed by Western blotting.

[7] = tested on: SYCP3 gene expression in HT-29 or WiDr tumor tissues; assay: SYCP3 gene expression in tumor tissues of nude mice given 5-AZA; assay type: in vivo, mouse; conditions: 5-AZA 1.6 μg/g i.p. Days 5, 10, 15, 20; tumors Day 25; vs PBS alone
Procedure: To the control mice, 200 μL of PBS was intraperitoneally administered.

[8] = tested on: SPESP1 gene expression in EBC1 or Lu65 tumor tissues; assay: SPESP1 gene expression in tumor tissues of nude mice given 5-AZA; assay type: in vivo, mouse; conditions: 5-AZA i.p.; tumors Day 25; vs PBS alone
Procedure: Similarly, nude mice were intradermally injected with cells of lung cancer cell line EBC1 (5×10^5 cells) or Lu65 (5×10^5 cells), and 5-AZA or PBS (control) was intraperitoneally administered. The RNAs were extracted from the tumor tissues collected on Day 25, and the gene expression levels of SPESP1 and GAPDH were analyzed by real-time PCR.

[9] = tested on: lung cancer cell line Lu65; assay: Tumor growth in nude mice bearing Lu65; assay type: in vivo, mouse; conditions: BALB/c nude mice, 5-AZA 150 nmol/g i.p. Days 7, 12, 17, 22, Th cells i.v. Days 13, 20, 27
Procedure: BALB/c nude mice (10 to 14 weeks old, CHARLES RIVER LABORATORIES JAPAN) were intradermally injected with 3×10^6 cells of lung cancer cell line Lu65 using Myjector, and on Days 7, 12, 17, and 22, 200 μL of PBS containing 5-AZA (150 nmol/g of mouse body weight) was intraperitoneally administered using Myjector. To the control mice, 200 μL of PBS was intraperitoneally administered. On Days 13, 20, and 27, 200 μL of SYCP3-specific human Th cells (3 to 5×10^6 cells) were administered by tail vein administration. To the control mice, 200 μL of PBS was administered by tail vein administration. The tumor surface areas were measured over time.

[10] = tested on: DR53-positive cancer cell lines (WiDr, Lu65, and Calu1); conditions: cancer cells pretreated with 10 μM 5-AZA and 500 U/mL IFN-γ for 3 days; co-culture 24 hours
Procedure: In order to study the reactivity of SYCP3-A peptide-specific CD4-positive T-cells toward cells of cancer cell lines, DR53-positive cancer cell lines (WiDr, Lu65, and Calu1) were used. The cancer cells were cultured in 6-well culture plates for 3 days using 2 mL of the complete medium containing 10 μM 5-AZA and 500 U/mL IFN-γ (Immunomax-γ for injection 50, Shionogi), which can induce expression of HLA class II molecules on the surfaces of cancer cells. The culture plates were thoroughly washed with PBS, 1 mL of 5 mM EDTA (ethylenediaminetetraacetic acid, nacalai tesque 14347-21) was added to suspend the cells, and the cells were recovered. In the same manner as in Test 8, 1×10^4 cells of each cell line and 5×10^4 CD4-positive T-cells were co-cultured in 96-well flat bottom culture plates using 200 μL of the culture medium for human cells. […] After 24 hours 100 μL of the culture supernatants were collected from each well, and the IFN-γ concentrations were determined using the ELISA kit.

[11] = A549, 5-AZA 10 μM, 3 days, DNA microarray
[12] = A549, 5-AZA treated vs untreated

Which “DAZL1 gene expression level, 5-AZA treated” value [1, 11] does the source give for `Nc1ncn([C@H]2C[C@H](O)[C@@H](CO)O2)c(=O)n1` [5-AZA, 5-aza-2′-deoxycytidine] here?
The value was 341.3.

What about the “SPESP1 gene expression level, 5-AZA treated” value [1, 11] of the same compound?
Its value is 65.3.

What about the “SYCP3 gene expression level, 5-AZA treated” value [1, 11] of the same compound?
Its value is 340.9.

And the DAZL1 fold-change [1, 12]?
The DAZL1 fold-change was 123.6.

What about the SPESP1 fold-change [1, 12] of the same compound?
The SPESP1 fold-change was 38.8.

What about the SYCP3 fold-change [1, 12] of the same compound?
The SYCP3 fold-change was 112.3.

What about the “SYCP3 gene expression level” value [2] of the same compound?
Its value is “upregulated”.

What about the “SPESP1 gene expression level” value [3] of the same compound?
Its value is “upregulated”.

What about the “DAZL1 gene expression level” value [4] of the same compound?
Its value is “upregulated”.

And the “amount of SYCP3 protein” value [5]?
Its value is “Upregulation”.

And the “amount of DAZL1 protein” value [6]?
Its value is “upregulated”.

What about the “SYCP3 gene expression in tumor tissues” value [7] of the same compound?
The value was “upregulated”.

And the “SPESP1 gene expression in tumor tissues” value [8]?
The value was “upregulated”.

What about the “tumor growth (tumor surface area)” value [9] of the same compound?
The value was “No effect”.

And the “IFN-γ production of SYCP3-A-specific CD4-positive T-cells toward cancer cells” value [10]?
The value was “increased the IFN-γ production”.
